Experimental data reported in patent publication US20230295140A1, “INHIBITORS OF VAP-1” (Acucela Inc., priority 2021, published 2023).

Legend:
Assay type in all cases: biochemical
[1] = molecular target: rhMAO-A (Homo sapiens (Human), UniProt P21397); assay: MAO-Glo assay, MAO-A inhibition
Summary of the method: (§1)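 Recombinant human MAO-A or MAO-B with luciferin-derivative substrate (10 μM for MAO-A, […]) in 100 mM HEPES pH 7.5, 5% glycerol, 1 h at room temperature; luminescence read 20 min after detection reagent.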

[2] = molecular target: rhVAP-1 (Homo sapiens (Human), UniProt Q16853); assay: VAP-1 fluorometric assay (Amplex Red/HRP, benzylamine substrate); details: class symbols, ranges defined in μM
Sequence of rhVAP-1 (Q16853 whole entry): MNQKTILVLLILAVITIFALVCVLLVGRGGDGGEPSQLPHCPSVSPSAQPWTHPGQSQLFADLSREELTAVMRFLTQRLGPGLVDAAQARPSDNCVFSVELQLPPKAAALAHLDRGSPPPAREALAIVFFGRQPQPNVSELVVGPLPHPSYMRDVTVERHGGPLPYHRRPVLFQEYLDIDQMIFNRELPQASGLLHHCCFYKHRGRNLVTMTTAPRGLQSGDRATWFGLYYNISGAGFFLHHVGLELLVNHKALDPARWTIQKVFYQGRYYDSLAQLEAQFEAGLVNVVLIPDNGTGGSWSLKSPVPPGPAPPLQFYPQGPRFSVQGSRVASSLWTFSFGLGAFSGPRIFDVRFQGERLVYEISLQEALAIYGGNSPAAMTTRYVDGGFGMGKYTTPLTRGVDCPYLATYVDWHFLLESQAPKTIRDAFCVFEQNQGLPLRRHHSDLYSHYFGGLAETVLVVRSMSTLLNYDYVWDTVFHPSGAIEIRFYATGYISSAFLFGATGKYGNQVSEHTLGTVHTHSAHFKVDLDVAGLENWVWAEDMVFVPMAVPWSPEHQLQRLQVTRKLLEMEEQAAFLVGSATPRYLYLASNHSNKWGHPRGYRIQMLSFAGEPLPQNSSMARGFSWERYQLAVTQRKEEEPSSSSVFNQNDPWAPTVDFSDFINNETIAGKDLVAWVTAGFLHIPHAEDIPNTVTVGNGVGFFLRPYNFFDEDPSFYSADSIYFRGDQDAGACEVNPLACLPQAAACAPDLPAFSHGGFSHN
Summary of the method: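 Recombinant human VAP-1 oxidizes 50 μM benzylamine in 10 mM NaHCO3 pH 7.4 containing 0.05 mM Amplex Red and 0.5 U HRP, with inhibitor in 0.5% DMSO. After 30 min at 37 °C in the dark, resorufin fluorescence is read […], calibrated against an H2O2 standard curve.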

[3] = molecular target: rhMAO-B (Homo sapiens (Human), UniProt P27338); assay: MAO-Glo assay, MAO-B inhibition
Sequence of rhMAO-B (P27338 whole entry): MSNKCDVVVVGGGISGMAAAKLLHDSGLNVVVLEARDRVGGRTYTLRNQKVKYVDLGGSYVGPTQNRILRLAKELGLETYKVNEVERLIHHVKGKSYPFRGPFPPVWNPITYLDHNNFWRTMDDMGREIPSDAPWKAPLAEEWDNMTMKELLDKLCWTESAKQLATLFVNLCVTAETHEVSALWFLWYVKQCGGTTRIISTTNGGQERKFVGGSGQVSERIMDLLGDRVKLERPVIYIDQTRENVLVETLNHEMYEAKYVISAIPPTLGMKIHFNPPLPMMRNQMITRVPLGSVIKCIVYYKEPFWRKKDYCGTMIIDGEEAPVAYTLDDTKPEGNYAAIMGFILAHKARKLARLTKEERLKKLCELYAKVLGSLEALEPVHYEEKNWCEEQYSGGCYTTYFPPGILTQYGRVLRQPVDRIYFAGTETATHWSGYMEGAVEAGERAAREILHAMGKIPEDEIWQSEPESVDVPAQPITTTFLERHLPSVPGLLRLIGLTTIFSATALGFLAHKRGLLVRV
Summary of the method: as §1

[4] = class symbols, ranges defined in μM

Sequence of rhMAO-A (P21397 whole entry): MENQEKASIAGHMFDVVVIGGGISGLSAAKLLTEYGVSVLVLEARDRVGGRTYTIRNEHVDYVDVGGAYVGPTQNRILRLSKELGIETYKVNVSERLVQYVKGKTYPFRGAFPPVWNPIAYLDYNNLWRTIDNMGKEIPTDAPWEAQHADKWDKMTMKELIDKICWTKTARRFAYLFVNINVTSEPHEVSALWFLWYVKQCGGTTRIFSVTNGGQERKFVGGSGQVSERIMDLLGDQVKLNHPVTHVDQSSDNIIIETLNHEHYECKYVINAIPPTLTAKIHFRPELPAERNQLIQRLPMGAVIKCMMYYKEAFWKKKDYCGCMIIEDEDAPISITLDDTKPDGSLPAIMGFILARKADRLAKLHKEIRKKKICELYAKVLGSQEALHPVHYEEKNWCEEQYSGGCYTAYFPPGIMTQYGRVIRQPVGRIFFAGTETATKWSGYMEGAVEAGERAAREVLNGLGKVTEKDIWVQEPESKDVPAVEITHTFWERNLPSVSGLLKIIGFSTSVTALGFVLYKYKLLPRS

Compound `NC/C(=C\F)COc1ccc2nc(NC3CCC(O)C3)oc2c1` (stereo not drawn) [Example 87, (E)-3-((6-((2-(aminomethyl)-3-fluoroallyl)oxy)benzo[d]oxazol-2-yl)amino)cyclopentan-1-ol 4-methylbenzenesulfonate] has an IC50 [1, 4] of 1 to 10 µM, an IC50 [2] of under 0.1 µM and an IC50 [3, 4] of 1 to 10 µM.
For `COc1ncccc1CNc1nc2ccc(OC/C(=C\F)CN)cc2o1` [Example 75, (Z)-6-((2-(aminomethyl)-3-fluoroallyl)oxy)-N-((2-methoxypyridin-3-yl)methyl)benzo[d]oxazol-2-amine 4-methylbenzenesulfonate], the IC50 ([1]; bound printed in cell) was over 50 µM, the IC50 [2] was under 0.1 µM and the IC50 [3, 4] was 0.1 to 1 µM.
`Cc1ccc(CNc2nc3ccc(OC/C(=C/F)CN)cc3o2)cn1` [Example 55, (E)-6-((2-(aminomethyl)-3-fluoroallyl)oxy)-N-((6-methylpyridin-3-yl)methyl)benzo[d]oxazol-2-amine 4-methylbenzenesulfonate] gave an IC50 ([1]; bound printed in cell) of over 35 µM, an IC50 [2] of under 0.1 µM and an IC50 [3, 4] of 1 to 10 µM.
Work on `NC/C(=C\F)COc1ccc2nc(NCCO)oc2c1` [Example 47, (E)-2-((6-((2-(aminomethyl)-3-fluoroallyl)oxy)benzo[d]oxazol-2-yl)amino)ethan-1-ol 4-methylbenzenesulfonate] yielded an IC50 [1, 4] of 10 to 30 µM, an IC50 [2] of under 0.1 µM and an IC50 [3, 4] of 10 to 30 µM.
For `C=C(CN)c1ccc2nc(CCCC)oc2c1` [Example 92, 2-(2-butylbenzo[d]oxazol-6-yl)prop-2-en-1-amine], the IC50 [1, 4] was under 0.1 µM, the IC50 [2] was 0.1 to 1 µM and the IC50 [3, 4] was under 0.1 µM.
For “(Z)-2-((6-((2-(aminomethyl)-3-fluoroallyl)oxy)benzo[d]oxazol-2-yl)amino)-N-methylacetamide (4-methylbenzenesulfonate) [Example 63]”, the IC50 ([1]; bound printed in cell) was over 40 µM, the IC50 [2] was under 0.1 µM and the IC50 ([3]; bound printed in cell) was over 40 µM.
In the case of `NC/C(=C/F)COc1ccc2nc(NCc3ccc(N4CCCC4=O)cc3)oc2c1` [Example 57, (Z)-1-(4-(((6-((2-(aminomethyl)-3-fluoroallyl)oxy)benzo[d]oxazol-2-yl)amino)methyl)phenyl)pyrrolidin-2-one 4-methylbenzenesulfonate], the IC50 [1, 4] is reported as 1 to 10 µM, the IC50 [2] is reported as 1 to 10 µM and the IC50 ([3]; bound printed in cell) is reported as over 40 µM.
For `Cc1cc(CNc2nc3ccc(OC/C(=C\F)CN)cc3o2)cc(C)n1` [Example 60, (Z)-6-((2-(aminomethyl)-3-fluoroallyl)oxy)-N-((2,6-dimethylpyridin-4-yl)methyl)benzo[d]oxazol-2-amine bis(4-methylbenzenesulfonate)], the IC50 ([1]; bound printed in cell) was over 50 µM, the IC50 [2] was under 0.1 µM and the IC50 [3, 4] was 1 to 10 µM.
Compound `CCCCc1nc2ccc(NC/C(=C/F)CN)cc2o1` [Example 17, (E)-N1-(2-butylbenzo[d]oxazol-6-yl)-2-(fluoromethylene)propane-1,3-diamine] has an IC50 [1, 4] of 10 to 30 µM, an IC50 [2] of under 0.1 µM and an IC50 [3, 4] of 0.1 to 1 µM.
`COCCCNc1nc2ccc(OC/C(=C\F)CN)cc2o1` [Example 81, (Z)-6-((2-(aminomethyl)-3-fluoroallyl)oxy)-N-(3-methoxypropyl)benzo[d]oxazol-2-amine 4-methylbenzenesulfonate] gave an IC50 [1, 4] of 1 to 10 µM, an IC50 [2] of under 0.1 µM and an IC50 [3, 4] of 1 to 10 µM.
`NC/C(=C\F)COc1ccc2nc(N3CCC(O)C3)oc2c1` (stereo not drawn) [Example 85, (E)-1-(6-((2-(aminomethyl)-3-fluoroallyl)oxy)benzo[d]oxazol-2-yl)pyrrolidin-3-ol 4-methylbenzenesulfonate] showed an IC50 [1, 4] of 1 to 10 µM, an IC50 [2] of under 0.1 µM and an IC50 [3, 4] of 1 to 10 µM.
